This assay deals with T1, Human IP6K1 (Homo sapiens, UniProt Q92551).
T1 construct: GST (N, cleaved yes); made in house; host or cells: C43 E. coli, pGEX-6P-2
The assay is described as follows: IP6K1 high-throughput screen of the Sigma LOPAC (ADP-Glo Max, single point).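 Further: final compound concentration 10µM in 5% DMSO.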 It is filed as biochemical. For orientation: In ADP-Glo the light output rises with the ADP produced.

[1] abbreviates: LOPAC single-point screen, ADP-Glo Max raw signal per well.
The mark [2] stands for this setting: LOPAC single-point screen, Z-score against plate average and StDev.
The mark [3] stands for this setting: LOPAC single-point screen, ADP-Glo Max luminescence raw signal per well.
[4] abbreviates: LOPAC single-point screen, Z-score relative to plate average and StDev.
Where [5] appears, read: Sigma LOPAC single-point screen, ADP-Glo Max raw signal per well.
[6] abbreviates: Sigma LOPAC single-point screen, Z-score from plate average and StDev.
[7] abbreviates: LOPAC single-point screen, Z-score from raw signal with plate average and StDev.

Structures can show the parent of a compound that is named as a salt.

T1 sequence (Q92551 whole entry): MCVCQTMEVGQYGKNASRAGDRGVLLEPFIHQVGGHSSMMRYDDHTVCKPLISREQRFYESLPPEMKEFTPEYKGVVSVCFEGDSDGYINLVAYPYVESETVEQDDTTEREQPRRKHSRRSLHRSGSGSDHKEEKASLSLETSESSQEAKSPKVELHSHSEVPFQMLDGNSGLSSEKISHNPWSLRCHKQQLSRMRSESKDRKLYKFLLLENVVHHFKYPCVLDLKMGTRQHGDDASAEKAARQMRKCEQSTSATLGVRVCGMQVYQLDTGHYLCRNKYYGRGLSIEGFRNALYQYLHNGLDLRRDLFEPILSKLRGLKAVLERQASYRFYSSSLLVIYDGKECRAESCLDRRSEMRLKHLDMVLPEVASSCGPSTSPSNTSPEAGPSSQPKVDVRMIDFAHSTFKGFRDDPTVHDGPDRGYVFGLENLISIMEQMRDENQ

Consider `CN1[C@@H](CC(=O)c2ccccc2)CCC[C@H]1C[C@H](O)c1ccccc1.Cl` [alpha-Lobeline hydrochloride], for which, under setting [1], the “Raw Signal” value came to 53929. Under setting [2], this compound showed a Z-score of -0.07805.
Take `CC(N)Cc1c[nH]c2ccc(O)cc12.O=C(O)/C=C\C(=O)O` (stereo not drawn) [alpha-Methyl-5-hydroxytryptamine maleate]: the Z-score under setting [2] is given as 0.02915.
For the compound `Cl.N[C@@H](CCl)C(=O)O` [beta-Chloro-L-alanine hydrochloride], the “Raw Signal” value under setting [1] is recorded as 58972. This compound also showed a Z-score under setting [2] of 0.1865.
`C[C@]12CC[C@@H]3c4ccc(O)cc4CC[C@H]3[C@@H]1CC[C@@H]2O` [beta-Estradiol]: the “Raw Signal” value under setting [3] is on record as 51790. The Z-score under setting [4] is on record as -0.6858.
Consider `CC1(C)CCC2=C(O1)c1ccccc1C(=O)C2=O` [beta-Lapachone], for which, under setting [1], the “Raw Signal” value was found to be 54181. Under setting [2], this compound gave a Z-score of -0.03571.
Consider `NC/C=C\C(=O)O` [cis-4-Aminocrotonic acid], for which the “Raw Signal” value under setting [3] turned out to be 52551. The same compound displayed a Z-score under setting [4] of -0.6747.
For `OCCN1CCN(CC/C=C2/c3ccccc3Sc3ccc(C(F)(F)F)cc32)CC1` [cis-(Z)-Flupenthixol dihydrochloride], the “Raw Signal” value under setting [1] stood at 56412. Also, the Z-score under setting [2] turned out to be 0.2528.
Consider `O=C(O)[C@@H]1C[C@H](C(=O)O)N1` [cis-Azetidine-2,4-dicarboxylic acid], for which the “Raw Signal” value under setting [3] turned out to be 69033. The compound also gave a Z-score (LOPAC single-point screen, Z-score from plate average and StDev) of 1.959.
With `C#CC(N)CCC(=O)O` (stereo not shown) [gamma-Acetylinic GABA], the “Raw Signal” value under setting [3] is on record as 54991. The same compound showed a Z-score under setting [4] of -0.5147.
As for `N[C@H](CCC(=O)NCS(=O)(=O)O)C(=O)O` [gamma-D-Glutamylaminomethylsulfonic acid], under setting [5], the “Raw Signal” value worked out at 58321. The compound also yielded a Z-score under setting [6] of 0.6405.
For the compound `CC(C(=O)O)c1ccc(CC2CCCC2=O)cc1` (stereo not shown) [loxoprofen], the “Raw Signal” value under setting [3] stood at 49153. Under setting [4], this compound came in with a Z-score of -0.8805.
For `NC(N)=NCc1cccc(I)c1.NC(N)=NCc1cccc(I)c1.O=S(=O)(O)O` [m-Iodobenzylguanidine hemisulfate], the “Raw Signal” value under setting [5] is 60474. The compound further returned a Z-score under setting [6] of 1.022.
For `Cl.Cl.Oc1ccc2c3c1O[C@H]1c4[nH]c5c(c4C[C@@]4(O)[C@@H](C2)N(CC2CC2)CC[C@]314)C[C@@]1(O)[C@H]2Cc3ccc(O)c4c3[C@@]1(CCN2CC1CC1)[C@H]5O4` [nor-Binaltorphimine dihydrochloride] the same measures were 56488 and 0.3519.
With `Cl.Nc1cc(Cl)c(N=C2NCCN2)c(Cl)c1` [p-Aminoclonidine hydrochloride], the “Raw Signal” value under setting [1] is reported as 56073. Under setting [7], this compound came in with a Z-score of -0.3241.
As for `O=C1C=CC(=O)C=C1` [p-Benzoquinone], the “Raw Signal” value under setting [3] turned out to be 51681. For the same compound, the Z-score under setting [4] is -1.098.
Consider `N[C@@H](Cc1ccc(F)cc1)C(=O)O` [p-Fluoro-L-phenylalanine], for which the “Raw Signal” value under setting [1] worked out at 55466. Also, under setting [2], the Z-score was 0.06072.
In the case of `Cl.Clc1cc(I)cc(Cl)c1NC1=NCCN1` [p-Iodoclonidine hydrochloride], the “Raw Signal” value under setting [1] was 52843. Under setting [7], this compound yielded a Z-score of -0.2605.
For the compound `COc1ccccc1N1CCN(CCN(C(=O)c2ccc(F)cc2)c2ccccn2)CC1.Cl.Cl` [p-MPPF dihydrochloride], under setting [1], the “Raw Signal” value worked out at 52235. This compound showed a Z-score under setting [7] of -0.3627.
For the compound `COc1ccccc1N1CCN(CCN(C(=O)c2ccc(I)cc2)c2ccccn2)CC1.Cl` [p-MPPI hydrochloride], under setting [5], the “Raw Signal” value was determined as 60360. For the same compound, under setting [6], the Z-score is recorded as 1.003.
For `C[C@]12CC[C@H](O)CC1=CC[C@@H]1[C@@H]2CC[C@]2(C)C(=O)CC[C@@H]12` [trans-Dehydroandrosterone], under setting [1], the “Raw Signal” value was found to be 53982. This compound returned a Z-score under setting [7] of -0.2407.
With (+)-Catechin Hydrate, under setting [1], the “Raw Signal” value amounted to 56524. The same compound showed a Z-score under setting [7] of -0.2447.
On to (+)-Cyclazocine, for which the “Raw Signal” value under setting [1] amounted to 53235. Besides, the Z-score under setting [7] is -0.3924.
